# Like-named read-outs stand apart in the source and are kept apart here.
# Key:
# [1] = target: T1, ATP-sensitive potassium channels (Cavia porcellus, UniProt A0A286XYR9); experiment: Radioligand (Example 1) binding assay, guinea-pig cardiac ventricle membranes; conditions: for effect on specific binding of Example 1 (in words): guinea-pig cardiac membranes
# Description: Membrane Preparation: Guinea-pig cardiac ventricles and bladder membranes were prepared by standard procedures, Gopalakrishnan, M., Johnson, D. E., Janis, R. A. & Triggle, D. J. (1991) Journal of Pharmacology and Experimental Therapeutics, 257, 1162-71; Russ, U., Metzger, F., Kickenweiz, E., Hambrock, A., Krippeit-Drews, P. & Quast, U. (1997) Br. J. Pharmacol., 122, 1119-1126. Briefly, ventricles and bladders were quickly removed from male guinea-pigs (Charles River) and placed in ice-cold binding buffer. Tissues were cleansed of adherent connective tissue, chopped into small pieces and disrupted using Tekmar polytron in about 15-vol./g tissue weight. Homogenates were centrifuged at 45,000×g and the membrane pellets were resuspended in the assay buffer. Membrane preparations from other tissues, cells, both clonal and transfected with KATP subunits, may also be used. Clonal cell lines or transfected cell lines can be cultured by standard tissue culture techniques. When cells were confluent, membrane preparations were made by removal of media followed by scraping the monolayer in ice-cold Tris HCl buffer (pH 7.2). The suspension was then centrifuged at 45,000×g for 20 minutes and the pellet was resuspended in the assay buffer for use in radioligand assays.
# Binding Assay: A radioligand of formula (I) such as 9-(4-fluoro-3-[I^125]iodophenyl)-2,3,5,9-tetrahydro-4H-pyrano[3,4-b]thieno[2,3-e]pyridin-8(7H)-one 1,1-dioxide (Example 1) (specific activity, 2000 Ci/mmol) was stored in ethanol. Prior to use, the desired amount of Example 1 was dried under a gentle stream of nitrogen gas and reconstituted in the assay buffer (usually prepared as a 10×stock). Guinea-pig ventricle membranes were incubated in a total 0.25 mL volume of HEPES buffer (composition, NaCl, 139 mM; KCl, 5 mM, MgCl2, 25 mM; CaCl2, 1.25 mM; pH 7.4 at 25° C.) containing an ATP regenerating system (creatine phosphate (40 mM), creatine phosphokinase (100 enzyme units) and varying concentrations of Na2ATP (0.01-3 mM) with Example 1 and varying concentrations of test compounds at 37° C. for 90 minutes. These conditions have been previously employed by Gopalakrishnan et al., 1991 (see above), hereby incorporated by reference, wherein the levels of ATP were consistently maintained since free ADP is converted back to ATP by creatine phosphate and creatine is regenerated to creatine phosphate by the enzyme creatine phosphokinase.
# Saturation binding of Example 1 was performed with varying concentrations of Example 1. For inhibition assays, samples were incubated in a final volume of 0.25 mL of buffer containing 1-2 nM of Example 1 with varying concentrations of the test compounds. Incubations were terminated by rapid vacuum filtration through GF/B filters followed by rinsing twice with ice-cold 50 mM Tris HCl (pH 7.4). Radioactivity bound to the filters was assessed by gamma counting. Specific radioligand binding is defined by the inclusion of 10 μM of unlabeled Example 1 and was obtained by subtracting the nonspecific binding from the total binding to membranes and filters.
# Membrane protein concentration was determined by the method of Lowry et al Gopalakrishnan, M., Triggle, D. J., Rutledge, A., Kwon, Y. W., Bauer, J. A. & Fung, H. L. (1991) Am. J. Physiol., 261, H1979-H1987; Janis, R. A., Maurer, S. C., Sarmiento, J. G., Bolger, G. T. & Triggle, D. J. (1982). Eur. J. Pharmacol., 82, 191-4.
# The equilibrium dissociation constant (KD) and maximal density of binding sites (Bmax) of Example 1 was determined by non-linear regression of the saturation binding isotherm. The Ki values were calculated from the concentration inhibition curve by the method of Cheng and Prusoff (1973) Biochem.Pharmacol.,22, 3099-3108. Data is presented as means±S.E.M.
# [2] = target: T1, ATP-sensitive potassium channels; experiment: as above; conditions: without ATP regenerating system
# [3] = target: ATP-sensitive potassium channel; experiment: Comparison of the profile of the novel radioligand with [^3H]P1075 in membrane preparations; assay type: binding; conditions: radioligand comparison table; read-out: Affinity
# [4] = quantity not given, Ki per method, mean±S.E.M., read-out: displacement of specific Example 1 binding by KATP channel blockers
# [5] = cardiac membranes, in the presence of the ATP regenerating system, Cheng-Prusoff, read-out: Ki value for displacement of specific Example 1 binding
# T1 sequence (A0A286XYR9 1-1546): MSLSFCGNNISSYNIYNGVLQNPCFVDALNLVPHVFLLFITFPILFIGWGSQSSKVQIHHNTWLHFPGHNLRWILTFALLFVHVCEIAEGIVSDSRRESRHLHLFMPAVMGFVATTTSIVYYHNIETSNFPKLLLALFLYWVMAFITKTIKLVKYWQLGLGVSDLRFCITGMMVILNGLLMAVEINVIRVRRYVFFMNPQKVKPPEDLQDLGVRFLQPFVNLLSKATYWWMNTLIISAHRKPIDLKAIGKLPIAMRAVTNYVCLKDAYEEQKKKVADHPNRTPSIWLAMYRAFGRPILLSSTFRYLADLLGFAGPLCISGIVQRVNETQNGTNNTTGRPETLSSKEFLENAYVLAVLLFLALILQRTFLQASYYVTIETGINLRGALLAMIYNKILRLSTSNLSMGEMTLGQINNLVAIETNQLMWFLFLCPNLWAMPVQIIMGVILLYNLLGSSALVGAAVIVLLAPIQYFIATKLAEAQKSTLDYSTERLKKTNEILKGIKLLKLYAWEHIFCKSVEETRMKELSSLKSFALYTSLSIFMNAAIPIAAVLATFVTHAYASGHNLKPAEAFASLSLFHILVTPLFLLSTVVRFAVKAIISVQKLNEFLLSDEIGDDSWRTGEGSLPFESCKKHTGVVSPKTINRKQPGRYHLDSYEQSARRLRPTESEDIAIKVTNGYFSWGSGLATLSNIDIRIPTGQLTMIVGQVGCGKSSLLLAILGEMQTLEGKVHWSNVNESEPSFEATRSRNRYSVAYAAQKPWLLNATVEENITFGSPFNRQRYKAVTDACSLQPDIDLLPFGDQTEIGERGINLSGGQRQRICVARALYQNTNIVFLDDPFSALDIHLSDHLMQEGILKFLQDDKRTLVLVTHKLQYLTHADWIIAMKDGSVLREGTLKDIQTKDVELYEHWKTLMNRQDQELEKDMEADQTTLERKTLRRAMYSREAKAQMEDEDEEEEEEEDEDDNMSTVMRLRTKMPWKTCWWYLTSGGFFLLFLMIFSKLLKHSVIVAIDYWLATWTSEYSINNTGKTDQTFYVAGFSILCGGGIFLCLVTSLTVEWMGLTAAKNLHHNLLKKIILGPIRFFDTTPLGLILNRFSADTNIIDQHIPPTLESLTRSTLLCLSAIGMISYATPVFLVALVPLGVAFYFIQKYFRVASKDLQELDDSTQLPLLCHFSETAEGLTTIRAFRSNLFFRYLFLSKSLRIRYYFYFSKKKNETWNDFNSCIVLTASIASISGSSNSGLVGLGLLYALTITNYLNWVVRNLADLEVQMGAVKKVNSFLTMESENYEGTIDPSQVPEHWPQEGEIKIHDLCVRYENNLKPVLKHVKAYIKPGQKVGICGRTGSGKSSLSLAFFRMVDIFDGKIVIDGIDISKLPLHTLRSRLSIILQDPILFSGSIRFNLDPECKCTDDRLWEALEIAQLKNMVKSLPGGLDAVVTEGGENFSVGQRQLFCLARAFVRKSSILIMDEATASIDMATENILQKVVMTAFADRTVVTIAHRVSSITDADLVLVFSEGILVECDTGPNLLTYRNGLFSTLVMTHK
compound,measurement,setting,value
CC1=NS(=O)(=O)c2cc(Cl)ccc2N1 [diazoxide],Ki,"[1]; cardiac membranes, rank order potency, read-out: Ki value for displacement of Example 1 binding",44800 nM
CC(N/C(=N\C#N)Nc1ccncc1)C(C)(C)C (stereo not drawn) [pinacidil],effect on specific binding of Example 1 (in words),[1],displaced
CC1(C)Oc2ccc(C#N)cc2C(N2CCCC2=O)C1O (stereo not drawn) [cromakalim],effect on specific binding of Example 1 (in words),[1],displaced
CCOc1ccccc1N/C(=C\[N+](=O)[O-])NC(C)C(C)(C)C (stereo not drawn) [Bay X 9228],effect on specific binding of Example 1 (in words),[1],displaced
COc1ccc(Cl)cc1C(=O)NCCc1ccc(S(=O)(=O)NC(=O)NC2CCCCC2)cc1 [glyburide],Ki,[1]; [4],47.6 ± 9.4 nM
"O=C1COCC2=C1C(c1ccc(F)c(I)c1)C1=C(CCS1(=O)=O)N2 (stereo not drawn) [Unlabeled Example 1, 9-(4-fluoro-3-iodophenyl)-2,3,5,9-tetrahydro-4H-pyrano[3,4-b]thieno[2,3-e]pyridin-8(7H)-one 1,1-dioxide]",Ki,[1]; [5],5.8 nM
O=C1CCCC2=C1[C@H](c1ccc(F)c(Br)c1)C1=C(CCS1(=O)=O)N2 [Example A-278637],effect on specific binding of Example 1 (in words),[1],displaced
CCC(C)(C)N=C(NC#N)Nc1cccnc1 [Example P1075],effect on specific binding of Example 1 (in words),[1],displaced
Cc1cnc(C(=O)NCCc2ccc(S(=O)(=O)NC(=O)NC3CCCCC3)cc2)cn1 [glipizide],Ki,[1]; [4],4500 ± 400 nM
"O=C1COCC2=C1C(c1ccc(F)c([125I])c1)C1=C(CCS1(=O)=O)N2 (stereo not drawn) [Example 1, 9-(4-fluoro-3-[I^125]iodophenyl)-2,3,5,9-tetrahydro-4H-pyrano[3,4-b]thieno[2,3-e]pyridin-8(7H)-one 1,1-dioxide]",maximum binding capacity (Bmax),"[1]; guinea-pig cardiac ventricle membranes, saturation binding, n=3",107.7±12.7 femtomol/mg protein
same,specific binding in the presence of just ATP alone,[2],no specific binding was detected
"O=C1COCC2=C1C(c1ccc(F)c(I)c1)C1=C(CCS1(=O)=O)N2 (stereo not drawn) [Example 1, 9-(4-fluoro-3-[I^125]iodophenyl)-2,3,5,9-tetrahydro-4H-pyrano[3,4-b]thieno[2,3-e]pyridin-8(7H)-one 1,1-dioxide]",Ki,[1]; [5],5.8 nM
same,Kd,"[1]; guinea-pig cardiac ventricle membranes, single set of saturable sites, n=3, mean±S.E.M., read-out: KD value (equilibrium dissociation constant), saturation binding",5.83 ± 0.77 nM
same,Kd,[3],5 nM
COC(=O)C1=C(C)NC(C)=C(C(=O)OC(C)C)C1c1cccc2nonc12 (stereo not drawn) [isradipine],effect on specific binding of Example 1 (in words),[1],unaffected

# From patent US6632418B2, “Radioligands and their use for identifying potassium channel modulators” (Abbott Laboratories, priority 2001, dated 2003)
